Experimental data from PubChem BioAssay (NCI).
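96-well plates; 48 h exposure; 5 concentrations. Endpoints by linear interpolation between flanking doses. Not reached: highest tested concentration assigned. TGI: concentration producing complete growth inhibition.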

Key:
Assay in all cases: growth of human tumour cells (NCI), 48 h
[1] = test system: BT-549 breast
[2] = test system: MALME-3M melanoma
[3] = test system: NCI-H226 lung
[4] = test system: M14 melanoma
[5] = test system: U251 CNS
[6] = test system: PC-3 prostate
[7] = test system: 786-0 renal
[8] = test system: HCT-116 colon
[9] = test system: RPMI-8226 leukemia
[10] = test system: HOP-62 NSCLC
[11] = test system: SF-268 CNS
[12] = test system: NCI-H23 lung
[13] = test system: K-562 leukemia
[14] = test system: OVCAR-5 ovarian
[15] = test system: HT29 colon
[16] = test system: HCT-15 colon
[17] = test system: MDA-MB-435
[18] = test system: NCI-H522 lung
[19] = test system: UACC-62 melanoma
[20] = test system: CAKI-1 renal

SMILES	TGI [1]	TGI [2]	TGI [3]	TGI [4]	TGI [5]	TGI [6]	TGI [7]	TGI [8]	TGI [9]	TGI [10]	TGI [11]	TGI [12]	TGI [13]	TGI [14]	TGI [15]	TGI [16]	TGI [17]	TGI [18]	TGI [19]	TGI [20]
Cc1c2ccccc2c(CSC(=N)N)c2ccccc12	3.72 µM	0.356 µM	0.679 µM	0.537 µM	0.818 µM	0.829 µM	0.745 µM	1.35 µM	0.558 µM	1.99 µM	1.33 µM	0.272 µM	1.4 µM	1.13 µM	1.05 µM	1.96 µM	0.44 µM	0.196 µM	0.408 µM	–
Cc1cccc(C)c1NC(=O)C(=O)C(c1ccccc1Cl)S(=O)(=O)Cc1ccccc1Cl (configuration not stated)	> 83.5 µM	–	> 100 µM	> 100 µM	> 100 µM	> 100 µM	> 71.7 µM	> 100 µM	> 100 µM	45.4 µM	66.6 µM	> 76.9 µM	> 100 µM	> 100 µM	> 100 µM	> 100 µM	> 100 µM	> 100 µM	> 100 µM	> 100 µM
CCOC(=O)c1ccc(OCc2nc3cc(C(F)(F)F)ccc3nc2-c2ccccc2)cc1	> 100 µM	–	> 100 µM	> 100 µM	> 100 µM	> 100 µM	> 100 µM	> 100 µM	> 100 µM	> 100 µM	> 100 µM	> 100 µM	> 100 µM	> 100 µM	> 100 µM	> 100 µM	> 100 µM	> 100 µM	> 100 µM	> 100 µM
